The structures appear in SMILES notation.

Data on one compound can be found in patent US11623922B2, “Compounds” (INFLAZOME LIMITED, priority 2017, dated 2023).

Series [1] deals with T1, NLRP3 (Homo sapiens, UniProt Q96P20). Description: Human whole blood IL1β release assay. To be noted: NLRP3 inhibitory activity, 1 μg/ml LPS, nigericin 10 μM, IL-1β by AlphaLisa, read-out: HWB IC50. Format: cell-based. More on the design: Plate out 80 μl of whole blood containing 1 μg/ml of LPS in 96-well, clear bottom cell culture plate; from tissue; host or cells: human whole blood from healthy donors. The procedure:
For systemic delivery, the ability to inhibit NLRP3 when the compounds are present within the bloodstream is of great importance. For this reason, the NLRP3 inhibitory activity of a number of compounds in human whole blood was investigated in accordance with the following protocol.
Human whole blood in Li-heparin tubes was obtained from healthy donors from a volunteer donor panel. • 1. […] Incubate for 3 hrs at 37° C., 5% CO2 • 4. Add 10 μl nigericin (Sigma #N7143) (10 μM FAC) to all wells • 5. Incubate for 1 hr at 37° C., 5% CO2 • 6. At the end of the incubation period, spin plates at 300×g for 5 mins to pellet cells and remove 20 μl of supernatant and add to 96-well v-bottom plates for IL-1β analysis (note: these plates containing the supernatants can be stored at −80° C. to be analysed at a later date) • 7. IL-1β was measured according to the manufacturer protocol (Perkin Elmer-AlphaLisa IL-1 Kit AL220F-5000) • 8. IC50 data is fitted to a non-linear regression equation (log inhibitor vs response-variable slope 4-parameters)
On the technique in general: Alpha assays give light when donor and acceptor beads are brought close together.

Series [2] deals with T1, NLRP3. Description: THP-1 cells pyroptosis assay. In kind it is cell-based. The arrangement: Seed THP-1 cells (25,000 cells/well) containing 1.0 μg/ml LPS in 40 μl of RPMI medium; host or cells: THP-1 cells. The note with it: NLRP3 inhibitory activity, 1.0 μg/ml LPS, nigericin 5 μM, resazurin readout. The procedure:
The cells were routinely passaged and grown to confluency (˜10^6 cells/ml). On the day of the experiment, THP-1 cells were harvested and resuspended into RPMI medium (without FBS). The cells were then counted and viability (>90%) checked by Trypan blue (Sigma #T8154). […] To this diluted cell solution was added LPS (Sigma #L4524) to give a 1 μg/ml Final Assay Concentration (FAC). 40 μl of the final preparation was aliquoted into each well of a 96-well plate. The plate thus prepared was used for compound screening.
The following method step-by-step assay was followed for compound screening. • 1. […] Incubate for 3 hrs at 37° C. in 5% CO2 • 4. Add 5 μl nigericin (Sigma #N7143) (FAC 5 μM) to all wells • 5. Incubate for 1 hr at 37° C. and 5% CO2 • 6. At the end of the incubation period, spin plates at 300×g for 3 mins and remove supernatant • 7. Then add 50 μl of resazurin (Sigma #R7017) (FAC 100 μM resazurin in RPMI medium without FBS) and incubate plates for a further 1-2 hrs at 37° C. and 5% CO2 • 8. […] IC50 data is fitted to a non-linear regression equation (log inhibitor vs response-variable slope 4-parameters)

A short description of series [3]: PK protocol, intravenous administration in rats. In kind it is in vivo. The note with it: rat, 1 mg/kg, male Sprague Dawley rats, plasma. The procedure: Pharmacokinetic parameters were determined in male Sprague Dawley rats (Vital River Laboratory Animal Technology Co Ltd, Beijing, China, 7-9 weeks old). Animals were individually housed during the study and maintained under a 12 h light/dark cycle. Animals had free access to food and water.
For intravenous administration, compounds were formulated as a solution in DMSO:PBS [10:90] in 2 mL/kg dosing volume and administered via tail vein.
Serial blood samples (about 200 μL) were taken from each animal at each of 8 time-points post dose (0.083, 0.25, 0.5, 1, 2, 4, 8 and 24 h). Samples were held on ice for no longer than 30 minutes before centrifugation (5,696 rpm (3,000 g) for 15 minutes) for plasma generation. Plasma was frozen on dry ice prior to bioanalysis. PK parameters were generated from LC-MS/MS data using Phoenix WinNonlin 6.3 software.

T1 sequence (Q96P20 whole entry): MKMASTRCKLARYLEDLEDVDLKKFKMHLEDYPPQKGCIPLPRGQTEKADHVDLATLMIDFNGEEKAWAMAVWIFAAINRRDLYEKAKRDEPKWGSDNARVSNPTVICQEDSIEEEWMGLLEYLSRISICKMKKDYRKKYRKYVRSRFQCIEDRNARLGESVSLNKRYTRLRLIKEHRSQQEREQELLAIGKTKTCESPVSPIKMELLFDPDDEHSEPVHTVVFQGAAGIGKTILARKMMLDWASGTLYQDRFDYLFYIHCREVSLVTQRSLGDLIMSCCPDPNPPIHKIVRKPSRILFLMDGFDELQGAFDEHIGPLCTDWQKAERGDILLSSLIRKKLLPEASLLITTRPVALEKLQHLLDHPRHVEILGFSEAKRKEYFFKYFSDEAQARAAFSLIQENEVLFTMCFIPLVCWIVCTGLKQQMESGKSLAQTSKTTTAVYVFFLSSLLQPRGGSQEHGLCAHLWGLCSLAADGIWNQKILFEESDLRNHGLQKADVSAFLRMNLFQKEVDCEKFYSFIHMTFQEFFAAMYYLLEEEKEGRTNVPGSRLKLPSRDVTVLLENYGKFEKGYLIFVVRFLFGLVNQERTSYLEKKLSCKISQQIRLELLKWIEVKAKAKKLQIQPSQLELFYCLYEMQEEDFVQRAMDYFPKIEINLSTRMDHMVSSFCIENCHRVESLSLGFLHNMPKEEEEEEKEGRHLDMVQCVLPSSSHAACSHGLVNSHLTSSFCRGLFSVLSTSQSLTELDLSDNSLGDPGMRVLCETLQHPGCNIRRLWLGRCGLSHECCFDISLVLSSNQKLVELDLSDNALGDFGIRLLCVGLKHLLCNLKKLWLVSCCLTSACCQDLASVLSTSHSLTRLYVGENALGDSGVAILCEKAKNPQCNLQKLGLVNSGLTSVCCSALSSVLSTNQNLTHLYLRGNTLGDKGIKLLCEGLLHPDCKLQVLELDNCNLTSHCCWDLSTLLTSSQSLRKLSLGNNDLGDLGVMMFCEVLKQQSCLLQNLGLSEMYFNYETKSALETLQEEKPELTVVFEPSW

With `COc1cc(-c2ccc3c(c2NC(=O)NS(=N)(=O)c2nn(C(C)C)cc2Cl)CCC3)ccn1` (stereo not drawn) [Example 11, 4-Chloro-1-isopropyl-N-((5-(2-methoxypyridin-4-yl)-2,3-dihydro-1H-inden-4-yl)carbamoyl)-1H-pyrazole-3-sulfonimidamide], on NLRP3 [1], the IC50 is less than 1 µM. The same compound came in with an IC50 against NLRP3 [2] of less than 0.1 µM. For the same compound, in series [3], the AUC turned out to be 2.72 µg·h/mL, the clearance turned out to be 0.366 L/h/kg and the half-life is 1 h. For the same compound, the Vd in series [3] (read-out: Vdss) came out at 0.45 L/kg.

As a reminder, the IC50 is the concentration needed to halve the response being measured. In general, AUC refers to concentration integrated over time. As a reminder, the clearance is the rate of elimination divided by the concentration. A high value points to a high capacity for elimination. As a reminder, the half-life is the time in which the quantity being followed falls by half. Low values mean fast loss, high ones slow loss.
